Drawing on PMC8237267 (Journal of Medicinal Chemistry, 2021), this text covers IC50 and half-life for one compound.

One data set has as its target T1, HDAC11 (Homo sapiens, UniProt Q96DB2).
T1 construct: The full-length human HDACs were recombinantly expressed and purified from SF9 insect cells; host or cells: SF9 insect cells
T1 sequence (Q96DB2 1-347): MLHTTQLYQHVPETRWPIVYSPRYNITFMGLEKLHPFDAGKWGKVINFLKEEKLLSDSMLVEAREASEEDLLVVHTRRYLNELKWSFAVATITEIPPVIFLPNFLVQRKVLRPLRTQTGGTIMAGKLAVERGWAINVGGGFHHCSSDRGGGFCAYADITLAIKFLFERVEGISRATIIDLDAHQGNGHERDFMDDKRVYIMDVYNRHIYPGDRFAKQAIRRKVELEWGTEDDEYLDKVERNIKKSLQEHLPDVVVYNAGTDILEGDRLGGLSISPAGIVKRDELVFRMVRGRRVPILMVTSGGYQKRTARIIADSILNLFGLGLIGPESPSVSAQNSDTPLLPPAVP
Kind of data set: HDAC EMSA activity assay (Nanosyn). The format is biochemical. To be noted: read-out: IC50 HDAC11. In general terms: In EMSA bound probe runs differently from free probe, usually more slowly.

The next data set concerns Hut78. As to the kind of experiment: Cytotoxicity assay (Cell Titer-Blue, 72 h). The format is cell-based. The note with it: Homo sapiens, CTCL, one representative of three experiments, read-out: IC50 (heat map) Hut78. The procedure:
(§1) The PTCL cell lines, KHYG-1, NK-92, SNK6, DERL-2, Mac1, 1305 Myla, Hut78, SU-DHL-1 or T-ALL cell lines SUP-T11, DND-41, and MOLT4 were maintained in RPMI-1640 supplemented with 10% FBS, 0.06 g/L penicillin/0.1 g/L streptomycin (Pen/Strep, Gibco), and 2 mM L-glutamine (Gibco). Culture media of KHYG-1, NK-92, SNK6, and DERL-2 cells was additionally supplemented with 2.5 ng/mL recombinant human IL-2 (ImmunoTools GmbH, Germany). The authenticity of PTCL cell lines was confirmed by analysis of highly polymorphic short tandem repeat loci (STR) using the PowerPlex 16 HS System (Promega; performed by Microsynth AG, Switzerland).
(§2) Cells were plated in 96-well flat-bottom sterile culture plates with low-evaporation lids (Costar #3997). The inhibitors and a vehicle control (0.5% DMSO) were added to the cells following 24 h. After 72 h, Cell Titer-Blue (Promega #G808A) was added to each well (20 μL), and the fluorescence was measured at 560/590 nm using a Cytation S63 spectrophotometer (BioTek) or a GloMax Discover Microplate Reader (Promega, Madison, WI, USA). GraphPad Prism 6.0 (GraphPad Software Inc.) was used to determine the IC50 values.
A general note: The colour change of resazurin is a common sign of viable cells or microbes.

For another data set, the system named is Mac1. Kind of data set: Cytotoxicity assay (Cell Titer-Blue, 72 h). The class given is cell-based. The note with it: ALK- ALCL; one representative of three experiments; read-out: IC50 (heat map) Mac1. On the procedure: as §1, §2
The nature of data set [1]: Stability in mouse plasma. The class given is in vitro ADME. To be noted: read-out: Plasma stability t1/2. On the procedure:
The plasma stability of the compounds was evaluated in mouse plasma provided from Sigma-Aldrich, Oakville, Canada. The main stock solutions of the compounds were prepared at 10 mM in DMSO, which was diluted to 100 μM in 50% acetonitrile (ACN)/50% water. Aliquots of 356.5 μL of plasma proteins were placed in a heating block and allowed to equilibrate at 37 °C for 5 min. Then, 3.5 μL of 100 μM compound solutions were added to each vial (final concentration of 1 μM). Three quality control (QC) samples at 100, 500, and 1000 nM were prepared in 0.5% ACN. The vial contents were transferred in 50 μL aliquots at time points of 0.5, 5, 10, 20, 30, and 60 mi to a 96-well autosampler plate containing 150 μL of protein precipitation solution. Ice-cold ACN containing internals standards (100 nM glyburide) were used as the protein precipitation solution. After centrifugation at 4 °C, 5500 rpm for 15 min, the supernatant was diluted in MQ water, and injected into the LC/MS/MS for quantitative analysis.
The mobile phase consisted of (A) 0.1% (v/v) formic acid in Milli-Q water; (B) 0.1% (v/v) formic acid in acetonitrile. […] Peak areas were determined from extracted ion chromatograms. The in vitro half-life (t1/2) of parent compounds were determined by regression analysis of the percent parent disappearance vs time curve.

Each structure is given as a SMILES string.

Usually IC50 stands for the point on the concentration scale where inhibition reaches its midpoint. Turning to `O=C(NO)c1ccc(CN(C2CC2)S(=O)(=O)c2cc(F)c(F)c(F)c2F)cc1` [Compound 14, 4-(((N-Cyclopropyl-2,3,4,5-tetrafluorophenyl)sulfonamido)methyl)-N-hydroxybenzamide], the values for the IC50 on HDAC11, in the data set on Hut78 and in the data set on Mac1 were above 1 µM, 16.2 µM and 9.6 µM, respectively. In addition, the half-life at 1 μM in data set [1] amounted to 41 min.
